Source: ChEMBL document CHEMBL1135852, “Inhibitors of NF-kappaB signaling: design and synthesis of a biotinylated isopanepoxydone affinity reagent” (2002)

Experiments:
HeLa = assay: Compound was tested for NF-kB inhibitory activity in Hela M cells; assay type: functional, Homo sapiens
HEK293 = assay: Compound was tested for NF-kB inhibitory activity in HEK 293 cells; assay type: functional, Homo sapiens

**Q.** Which Inhibitory activity (HeLa) does the source give for `CC(C)(O)/C=C/C1=CC(=O)[C@@H]2O[C@@H]2[C@@H]1O` here?
**A.** The Inhibitory activity was “>=100”.

**Q.** For `CC(=O)O[C@H]1C(/C=C/C(C)(O)CCCCCCCCN2C(=O)c3ccccc3C2=O)=CC(=O)[C@@H]2O[C@@H]21` (stereo partly drawn), which Inhibitory activity (HEK293) is on record?
**A.** The Inhibitory activity was “<=0”.

**Q.** What about the Inhibitory activity (HeLa) of the same molecule?
**A.** The Inhibitory activity was “<=0”.

**Q.** What does the source list for `CC(C)=C[C@@H](O)C1=C[C@@H](O)[C@@H]2O[C@@H]2C1=O`?
**A.** Inhibitory activity (HEK293): <=0; Inhibitory activity (HeLa): <=0

**Q.** Which Inhibitory activity (HEK293) does the source give for `CC(C)(O)/C=C/C1=CC(=O)[C@@H]2O[C@@H]2C1=O` here?
**A.** Its Inhibitory activity is “<=0”.

**Q.** And the Inhibitory activity (HeLa)?
**A.** Its Inhibitory activity is “<=0”.

**Q.** How did the Inhibitory activity (HEK293) turn out when `CC(=O)O[C@H]1C(/C=C/C(C)(C)O)=CC(=O)[C@@H]2O[C@@H]21` was run?
**A.** The Inhibitory activity was “<=0”.

**Q.** And the Inhibitory activity (HeLa)?
**A.** Its Inhibitory activity is “<=0”.

**Q.** Which Inhibitory activity (HEK293) does the source give for `CC(C)(O)/C=C/C1=CC(=O)[C@@H]2O[C@@H]2[C@H]1O` here?
**A.** Its Inhibitory activity is 4.

**Q.** And the Inhibitory activity (HeLa)?
**A.** Its Inhibitory activity is “<=0”.

**Q.** What does the source list for `CC(C)(O)/C=C/C1=C[C@@H](O)[C@@H]2O[C@@H]2C1=O`?
**A.** Inhibitory activity (HEK293): 63; Inhibitory activity (HeLa): >=100

**Q.** Which results are given for `CC(=O)O[C@@H]1C(/C=C/C(C)(C)O)=CC(=O)[C@@H]2O[C@H]12`?
**A.** Inhibitory activity (HEK293): <=0; Inhibitory activity (HeLa): <=0

**Q.** `CC(=O)O[C@@H]1C(/C=C/C(C)(C)O)=C[C@@H](O)[C@@H]2O[C@@H]21` was tested. Which Inhibitory activity (HEK293) did it give?
**A.** The Inhibitory activity was 58.

**Q.** What about the Inhibitory activity (HeLa) of the same molecule?
**A.** Its Inhibitory activity is “>=100”.

**Q.** What does the source list for `CC(=O)O[C@H]1C(/C=C/C(C)(C)O)=C[C@@H](O)[C@@H]2O[C@@H]21`?
**A.** Inhibitory activity (HEK293): 49; Inhibitory activity (HeLa): >=100

**Q.** How did the Inhibitory activity (HEK293) turn out when `CC(C)=CC(=O)C1=C[C@@H](O)[C@@H]2O[C@@H]2[C@@H]1O` was run?
**A.** The Inhibitory activity was 65.

**Q.** What about the Inhibitory activity (HeLa) of the same molecule?
**A.** The Inhibitory activity was 85.

**Q.** Which Inhibitory activity (HEK293) does the source give for `CC(C)=C[C@H](O)C1=C[C@@H](O)[C@@H]2O[C@@H]2C1=O` [PANEPOXYDONE] here?
**A.** Its Inhibitory activity is “<=0”.

**Q.** What about the Inhibitory activity (HeLa) of the same molecule?
**A.** The Inhibitory activity was “<=0”.
